Data as given in patent publication US4950686A, “Anti-mycoplasma agent” (Shionogi & Co., Ltd., priority 1986, dated 1990).
In brackets after ≈: the same amount, converted by molar mass. Where a name gives a salt, the structure may show the parent alone. Read-outs that look alike come from different tables or passages of the source. Values belong to the compound of their own block, whether it stands above or below them.

Legend:
[1] = tested on: Mycoplasma gallisepticum S6 (standard strain); experiment: Anti-mycoplasma activity in vitro (MIC, broth dilution), strain S6; assay type: cell-based; settings: Mg S6, 37° C., 7 days
Experimental: (§1) (1) Anti-mycoplasma activity test in vitro
(§2) MIC values of each of Tropolones were measured on the following strains according to the following method.
(§3) (a) Mycoplasma gallisepticum
(§4) Medium: Chick PPLO broth supplemented with 20% equine serum (Eiken Kagaku Co., Ltd.)
(§5) Method: Broth dilution method
(§6) Inoculum: Culture incubated at 37° C. for 24-48 hr which is diluted with broth to 10^6 CCU/ml immediately before the use.
(§7) To 1.6 ml of the broth is added 0.2 ml of an agent which has been subjected to 2-fold dilution and then added 0.2 ml of inoculum, which is incubated at 37° C. for 7 days.

[2] = tested on: Mycoplasma hyopneumoniae ST-11 (standard strain); experiment: Anti-mycoplasma activity in vitro (MIC, broth dilution), strain ST-11; assay type: cell-based; settings: Mh ST-11
Experimental: as §1, §2
(b) Mycoplasma hyopneumoniae
Strain: ST-11 (standard strain)
Medium: 850 ml of Hanks' solution supplemented with 0.5% lactoalbumin, 50 ml of 25% yeast, 100 ml of equine serum and 4-6 ml of 0.5% phenol red (pH 7.4-7.6)
as §5
Inoculum: Culture which is incubated for 3-4 days and diluted 10 times with the broth if color of the broth becomes yellow then. If it needs over 4 days until color of the broth becomes yellow, it is further subcultured. This is diluted 10 times with the broth to give inoculum.
Assay is done in the same manner as in the above (a).

[3] = tested on: Mycoplasma gallisepticum S6 (standard strain); experiment: Mycoplasma gallisepticum air-sac infection method in chicken, strain S6; assay type: in vivo, Mycoplasma gallisepticum; SPF chicken (white leghorn)
Experimental: (§8) (2) Test of Effectiveness Mycoplasma gallisepticum air-sac infection method
(§9) Inoculation: To the right air-sac of 9 days old SPF chicken (a white leghorn) which has abstained from water and feed one day before is inoculated 0.20-0.25 ml/chicken of fresh mycoplasma culture incubated for 24-48 hr and diluted with broth (usually 100 times). The concentration in Table 2 is shown in a unit of mg/ml.
(§10) Medium: Chick PPLO broth supplemented with 15% equine serum (Eiken Kagaku Co., Ltd.)
(§11) Administration: A compound of this invention dissolved or suspended in the following solution is orally and forcibly administered once by a cannula immediately after the infection.
(§12) Anatomization and Isolation of Microorganism: The chickens are anatomized 5 days after the infection, and the right and left air sacs are investigated whether they are attacked with a disease or not. The change caused by the disease is represented in four degrees; -: no change, +: slight, ++: medium and +++: serious. Microorganism is isolated from the right and left air-sacs and the trachea by using a sterilized applicator.
(§13) Judgement: Judgement is done through an index of an air-sac disease and an index of a microorganism-isolation.
(§14) Index of an air-sac-disease: First, indexes in the right and left air-sacs are separately calculated according to the following formula;
(§15) {degree of disease (0-3)×chickens}/anatomized chickens
(§16) and the index is calculated by the following formula;
(§17) (index of right air-sac)×1+(index of left air-sac)×2
(§18) Index of a microorganism isolation:
(§19) P: chickens from the right air-sac of which microorganism is isolated,
(§20) Q: chickens from the trachea of which microorganism is isolated,
(§21) R: chickens from the left air-sac of which microorganism is isolated, and
(§22) S: chickens investigated.

[4] = tested on: Mycoplasma gallisepticum T-7-T (wild strain, tylosin-resistant); experiment: Anti-mycoplasma activity in vitro (MIC, broth dilution), strain T-7-T; assay type: cell-based; settings: Mg T-7-T, 37° C., 7 days
Experimental: as §1, §2, §3
(§23) T-7-T (wild strain, tylosin-resistant)
as §4, §5, §6, §7

[5] = tested on: Mycoplasma gallisepticum MR-1 (wild strain, tylosin-resistant); experiment: Anti-mycoplasma activity in vitro (MIC, broth dilution), strain MR-1; assay type: cell-based; settings: Mg MR-1, 37° C., 7 days
Experimental: as §1, §2, §3
MR-1 (wild strain, tylosin-resistant)
as §4, §5, §6, §7

[6] = tested on: Mycoplasma gallisepticum T-7-T (wild strain, tylosin-resistant); experiment: Mycoplasma gallisepticum air-sac infection method in chicken, strain T-7-T;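 for Index of Isolation: index = (P×1 + Q×2 + R×3)/S with range 0 to 6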; assay type: in vivo, Mycoplasma gallisepticum; SPF chicken (white leghorn); settings: 100 mg/kg × once oral, 10 mg/ml sol. b; for Change of air-sac, left: + (chickens) / Change of air-sac, left: ++ (chickens) / Change of air-sac, left: +++ (chickens) / Change of air-sac, left: - (chickens) / Change of air-sac, right: + (chickens) / Change of air-sac, right: ++ (chickens) / Change of air-sac, right: +++ (chickens) / Change of air-sac, right: - (chickens) / Isolation, L (left air-sac) / Isolation, R (right air-sac) / Isolation, T (trachea) / Mycoplasma Isolated Chickens: inoculum 10^2; for Index of Isolation: inoculum 10^2, range 0-6.0; for Index of Disease: inoculum 10^2, range 0-9.0
Experimental: as §8, §23, §9, §10, §11, §12, §13, §14, §15, §16, §17, §18, §19, §20, §21, §22

[7] = 200 mg/kg × once oral, 20 mg/ml sol. b, inoculum 1.18 × 10^6
[8] = Mycoplasmoides gallisepticum, 168 h, read-out: MIC
[9] = Mesomycoplasma hyopneumoniae, read-out: MIC
[10] = 100 mg/kg × once oral, 10 mg/ml sol. b, inoculum 1.2 × 10^6
[11] = 100 mg/kg × once oral, 10 mg/ml sol. b, inoculum 1.2 × 10^6, range 0-6.0
[12] = 100 mg/kg × once oral, 10 mg/ml sol. b, inoculum 1.2 × 10^6, range 0-9.0
[13] = 100 mg/kg × once oral, 10 mg/ml sol. b, inoculum 7.7 × 10^5
[14] = 100 mg/kg × once oral, 10 mg/ml sol. b, inoculum 7.7 × 10^5, range 0-6.0
[15] = 100 mg/kg × once oral, 10 mg/ml sol. b, inoculum 7.7 × 10^5, range 0-9.0

SMILES: O=c1cccccc1O [Compound 12, Tropolone L-arginine salt]
MIC [1]: 3.13 µg/mL
MIC [2]: 1.56 µg/mL
Change of air-sac, left: + (chickens) [3, 7]: 0
Change of air-sac, left: ++ (chickens) [3, 7]: 0
Change of air-sac, left: +++ (chickens) [3, 7]: 0
Change of air-sac, left: - (chickens) [3, 7]: 5
Change of air-sac, right: + (chickens) [3, 7]: 1
Change of air-sac, right: ++ (chickens) [3, 7]: 0
Change of air-sac, right: +++ (chickens) [3, 7]: 0
Change of air-sac, right: - (chickens) [3, 7]: 4
Isolation, L (left air-sac) [3, 7]: 0
Isolation, R (right air-sac) [3, 7]: 2
Isolation, T (trachea) [3, 7]: 1
Mycoplasma Isolated Chickens [3, 7]: 2
Index of Isolation ([3]; 200 mg/kg × once oral, 20 mg/ml sol. b, inoculum 1.18 × 10^6, range 0-6.0): 0.8
Index of Disease ([3]; 200 mg/kg × once oral, 20 mg/ml sol. b, inoculum 1.18 × 10^6, range 0-9.0): 0.2
MIC [4]: 3.13 µg/mL
MIC [5]: 3.13 µg/mL

MIC [1, 8]: 0.39 µg/mL (≈ 1.65 µM)
MIC [2, 9]: 0.1 µg/mL (≈ 0.423 µM)
MIC [4, 8]: 0.78 µg/mL (≈ 3.3 µM)
MIC [5, 8]: 1.56 µg/mL (≈ 6.6 µM)
SMILES: CC(C)(C)C(=O)OCOc1cccccc1=O [Compound 19, O-(pivaloyloxymethyl)tropolone]
Change of air-sac, left: + (chickens) [3, 10]: 0
Change of air-sac, left: ++ (chickens) [3, 10]: 0
Change of air-sac, left: +++ (chickens) [3, 10]: 0
Change of air-sac, left: - (chickens) [3, 10]: 8
Change of air-sac, right: + (chickens) [3, 10]: 0
Change of air-sac, right: ++ (chickens) [3, 10]: 0
Change of air-sac, right: +++ (chickens) [3, 10]: 0
Change of air-sac, right: - (chickens) [3, 10]: 8
Isolation, L (left air-sac) [3, 10]: 1
Isolation, R (right air-sac) [3, 10]: 1
Isolation, T (trachea) [3, 10]: 2
Mycoplasma Isolated Chickens [3, 10]: 2
Index of Isolation [3, 11]: 1.01
Index of Disease [3, 12]: 0
Change of air-sac, left: + (chickens) [6]: 0
Change of air-sac, left: ++ (chickens) [6]: 0
Change of air-sac, left: +++ (chickens) [6]: 0
Change of air-sac, left: - (chickens) [6]: 8
Change of air-sac, right: + (chickens) [6]: 0
Change of air-sac, right: ++ (chickens) [6]: 0
Change of air-sac, right: +++ (chickens) [6]: 0
Change of air-sac, right: - (chickens) [6]: 8
Isolation, L (left air-sac) [6]: 2
Isolation, R (right air-sac) [6]: 1
Isolation, T (trachea) [6]: 5
Mycoplasma Isolated Chickens [6]: 5
Index of Isolation [6]: 2.00
Index of Disease [6]: 0

MIC [1, 8]: 0.39 µg/mL (≈ 1.53 µM)
MIC [2, 9]: 0.39 µg/mL (≈ 1.53 µM)
MIC [4, 8]: 0.78 µg/mL (≈ 3.07 µM)
MIC [5, 8]: 0.78 µg/mL (≈ 3.07 µM)
SMILES: O=C1OC(Oc2cccccc2=O)c2ccccc21 (stereo not shown) [Compound 23, O-(1,3-Dihydro-3-oxo-1-isobenzofuranyl)tropolone]
Change of air-sac, left: + (chickens) [3, 10]: 0
Change of air-sac, left: ++ (chickens) [3, 10]: 0
Change of air-sac, left: +++ (chickens) [3, 10]: 0
Change of air-sac, left: - (chickens) [3, 10]: 8
Change of air-sac, right: + (chickens) [3, 10]: 0
Change of air-sac, right: ++ (chickens) [3, 10]: 0
Change of air-sac, right: +++ (chickens) [3, 10]: 0
Change of air-sac, right: - (chickens) [3, 10]: 8
Isolation, L (left air-sac) [3, 10]: 1
Isolation, R (right air-sac) [3, 10]: 1
Isolation, T (trachea) [3, 10]: 4
Mycoplasma Isolated Chickens [3, 10]: 4
Index of Isolation [3, 11]: 1.90
Index of Disease [3, 12]: 0
Change of air-sac, left: + (chickens) [6]: 0
Change of air-sac, left: ++ (chickens) [6]: 0
Change of air-sac, left: +++ (chickens) [6]: 0
Change of air-sac, left: - (chickens) [6]: 8
Change of air-sac, right: + (chickens) [6]: 0
Change of air-sac, right: ++ (chickens) [6]: 0
Change of air-sac, right: +++ (chickens) [6]: 0
Change of air-sac, right: - (chickens) [6]: 8
Isolation, L (left air-sac) [6]: 6
Isolation, R (right air-sac) [6]: 5
Isolation, T (trachea) [6]: 6
Mycoplasma Isolated Chickens [6]: 6
Index of Isolation [6]: 4.20
Index of Disease [6]: 0

MIC [1, 8]: 0.39 µg/mL (≈ 1.67 µM)
MIC [2, 9]: 0.2 µg/mL (≈ 0.854 µM)
MIC [4, 8]: 0.39 µg/mL (≈ 1.67 µM)
MIC [5, 8]: 0.39 µg/mL (≈ 1.67 µM)
SMILES: Cc1oc(=O)oc1COc1cccccc1=O [Compound 25, O-{(2-Oxo-5-methyl-1,3-dioxol-4-yl)methyl}tropolone]
Change of air-sac, left: + (chickens) [3, 13]: 0
Change of air-sac, left: ++ (chickens) [3, 13]: 0
Change of air-sac, left: +++ (chickens) [3, 13]: 0
Change of air-sac, left: - (chickens) [3, 13]: 8
Change of air-sac, right: + (chickens) [3, 13]: 1
Change of air-sac, right: ++ (chickens) [3, 13]: 0
Change of air-sac, right: +++ (chickens) [3, 13]: 0
Change of air-sac, right: - (chickens) [3, 13]: 7
Isolation, L (left air-sac) [3, 13]: 6
Isolation, R (right air-sac) [3, 13]: 5
Isolation, T (trachea) [3, 13]: 7
Mycoplasma Isolated Chickens [3, 13]: 7
Index of Isolation [3, 14]: 4.38
Index of Disease [3, 15]: 0.13

MIC [1, 8]: 6.25 µg/mL (≈ 41.1 µM)
MIC [2, 9]: 3.13 µg/mL (≈ 20.6 µM)
MIC [4, 8]: 12.5 µg/mL (≈ 82.2 µM)
MIC [5, 8]: 6.25 µg/mL (≈ 41.1 µM)
SMILES: COc1ccccc(O)c1=O [Compound 26, 7-Methoxytropolone]
Change of air-sac, left: + (chickens) [3, 13]: 0
Change of air-sac, left: ++ (chickens) [3, 13]: 0
Change of air-sac, left: +++ (chickens) [3, 13]: 0
Change of air-sac, left: - (chickens) [3, 13]: 8
Change of air-sac, right: + (chickens) [3, 13]: 4
Change of air-sac, right: ++ (chickens) [3, 13]: 2
Change of air-sac, right: +++ (chickens) [3, 13]: 0
Change of air-sac, right: - (chickens) [3, 13]: 2
Isolation, L (left air-sac) [3, 13]: 8
Isolation, R (right air-sac) [3, 13]: 5
Isolation, T (trachea) [3, 13]: 8
Mycoplasma Isolated Chickens [3, 13]: 8
Index of Isolation [3, 14]: 4.88
Index of Disease [3, 15]: 1.00
